Source: publication PMC8657855 (International Journal of Molecular Sciences, 2021)
Converted amounts (≈) assume the structure as drawn.

Columns and labels:
Assay in all cases: microbe, parasite or virus in culture
[1] = tested on: Xanthomonas oryzae pv. oryzae Xoo; conditions: read-out: EC50 (mg/L) Xoo
[2] = tested on: Xanthomonas oryzae pv. oryzicola Xoc; conditions: read-out: EC50 (mg/L) Xoc
[3] = tested on: Xanthomonas oryzae pv. oryzae Xoo
[4] = tested on: Xanthomonas oryzae pv. oryzicola Xoc
[5] = read-out: Inhibition (%) 10 (mg/L)
[6] = read-out: Inhibition (%) 50 (mg/L)

SMILES: CS(=O)(=O)c1nnc(CNC(=O)c2ccc(F)cc2)o1 [compound 26, 4-fluoro-N-((5-(methylsulfonyl)-1,3,4-oxadiazol-2-yl)methyl)benzamide]
- EC50 [1]: 0.61 ± 0.03 mg/L (≈ 2.04 µM)
- EC50 [2]: 2.3 ± 0.06 mg/L (≈ 7.69 µM)
- inhibition at 10 µg/mL [3, 5]: 99.4 ± 0.2%
- inhibition at 50 µg/mL [3, 6]: 99.1 ± 0.1%
- inhibition at 10 µg/mL [4, 5]: 98.3 ± 1.6%
- inhibition at 50 µg/mL [4, 6]: 99 ± 1%
